Measurements reported in EPA's ToxValDB 9.5 (doi:10.2903/j.efsa.2016.4554).

Assays:
[1] = system: Typhlodromus pyri; assay: LR50; higher = less toxic; settings: not reported; mortality
[2] = system: Colinus virginianus; settings: reproduction developmental; duration: 22 weeks
[3] = system: Oncorhynchus mykiss; settings: acute; mortality
[4] = system: Bibionidae; settings: chronic/long-term; duration: 28 days
[5] = system: Mus musculus; settings: chronic; duration: 18 months; histopathology: neoplastic
[6] = system: Pimephales promelas; settings: chronic/long-term
[7] = system: Tagia sp.; settings: chronic/long-term; duration: 56 days; other
[8] = system: Apis mellifera; settings: acute, mortality
[9] = system: Rattus norvegicus
[10] = system: Daphnia magna; settings: chronic/long-term; duration: 21 days
[11] = system: Folsomia candida; settings: chronic/long-term; duration: 28 days; reproduction

C#CC(C)(C)NC(=O)c1cc(Cl)cc(Cl)c1 [Propyzamide]
LR50 [1]: 1890 g/ha | NOEL [2]: 30.9 mg/kg-day | LD50 [3]: > 4.7 mg/L | NOEC [4]: 0.34 mg/L | NOAEL [5]: 5 mg/kg-day | NOEC [6]: 0.224 mg/L | NOEC [7]: 3.3 mg/kg | LD50 ([8]; dermal): > 100 µg/piece | LD50 ([8]; oral, unspecified): > 100 µg/piece | LOAEL ([9]; acute, neurology): 40 mg/kg-day | NOAEL ([9]; reproduction developmental, M, body weight): 12.1 mg/kg-day | NOAEL ([9]; subchronic, duration: 90 days, oral, organ weight): 4.5 mg/kg-day | NOEC [10]: 0.6 mg/L | NOEC [11]: 1.4 mg/kg

CC(=O)C(C)(C)NC(=O)c1cc(Cl)cc(Cl)c1 [Benzamide, 3,5-dichloro-N-(1,1-dimethyl-2-oxopropyl)-]
NOEC [11]: 20 mg/kg
